Our source for the IC50 values is patent publication US20090018134A1, “Compounds - 945” (AstraZeneca AB, priority 2007, published 2009).

This experiment has as its target T1, mTOR (Homo sapiens, UniProt P42345).
T1 construct: FLAG; made in house
The experiment is described as follows: In Vitro mTOR Kinase Assay (Echo), Test (a)(ii). The format is biochemical. An excerpt: (a)(ii) In Vitro mTOR Kinase Assay (Echo)
The assay used AlphaScreen technology (Gray et al., Analytical Biochemistry, 2003, 313: 234-245) to determine the ability of test compounds to inhibit phosphorylation by recombinant mTOR.
A C-terminal truncation of mTOR encompassing amino acid residues 1362 to 2549 of mTOR (EMBL Accession No. L34075) was stably expressed as a FLAG-tagged fusion in HEK293 cells as described by Vilella-Bach et al., […], 1999, 274, 4266-4272. The HEK293 FLAG-tagged mTOR (1362-2549) stable cell line was routinely maintained at 37° C. with 5% CO2 up to a confluency of 70-90% in Dulbecco's modified Eagle's growth medium (DMEM; Invitrogen Limited, Paisley, UK Catalogue No. 41966-029) containing 10% heat-inactivated foetal calf serum (FCS; Sigma, Poole, Dorset, UK, Catalogue No. F0392), 1% L-glutamine (Gibco, Catalogue No. 25030-024) and 2 mg/ml Geneticin (G418 sulfate; Invitrogen Limited, UK Catalogue No. 1013 1-027). Following expression in the mammalian HEK293 cell line, expressed protein was purified using the FLAG epitope tag using standard purification techniques.
Aliquots (120 nl […]) of each compound dilution were acoustically dispensed placed using a Labcyte Echo 550 into a well of a Greiner 384-well low volume (LV) white polystyrene plate (Greiner Bio-one).
These assay solutions were incubated for 2 hours at room temperature.
Each reaction was stopped by the addition of […] of a mixture of EDTA (50 mM), bovine serum albumin (BSA; 0.5 mg/mL) and Tris-HCl pH 7.4 buffer (50 mM) containing p70 S6 Kinase (T389) 1A5 Monoclonal Antibody (Cell Signalling Technology, Catalogue No. 9206B) and AlphaScreen Streptavidin donor and Protein A acceptor beads (200 ng; Perkin Elmer, Catalogue No. 6760002B and 6760137R respectively) were added and the assay plates were left overnight at room temperature in the dark. The resultant signals arising from laser light excitation at 680 nm were read using a Packard Envision instrument.
The phosphorylated biotinylated peptide that is associated with AlphaScreen Streptavidin donor beads forms a complex with the p70 S6 Kinase (T389) 1A5 Monoclonal Antibody that is associated with Alphascreen Protein A acceptor beads. Upon laser light excitation at 680 nm, the donor bead: acceptor bead complex produces a signal that can be measured. Accordingly, the presence of mTOR kinase activity results in an assay signal. In the presence of an mTOR kinase inhibitor, signal strength is reduced.
mTOR enzyme inhibition for a given test compound was expressed as an IC50 value.

The mark [1] stands for this setting: read-out: mTOR Kinase Assay (Echo).
Setting [2] is: table of enzyme assay Test (a)(ii), read-out: Test (a)(ii) IC50.

SMILES strings stand for the structures. Where two headings read alike, the source gives them in different places.

T1 sequence (P42345 1362-2549): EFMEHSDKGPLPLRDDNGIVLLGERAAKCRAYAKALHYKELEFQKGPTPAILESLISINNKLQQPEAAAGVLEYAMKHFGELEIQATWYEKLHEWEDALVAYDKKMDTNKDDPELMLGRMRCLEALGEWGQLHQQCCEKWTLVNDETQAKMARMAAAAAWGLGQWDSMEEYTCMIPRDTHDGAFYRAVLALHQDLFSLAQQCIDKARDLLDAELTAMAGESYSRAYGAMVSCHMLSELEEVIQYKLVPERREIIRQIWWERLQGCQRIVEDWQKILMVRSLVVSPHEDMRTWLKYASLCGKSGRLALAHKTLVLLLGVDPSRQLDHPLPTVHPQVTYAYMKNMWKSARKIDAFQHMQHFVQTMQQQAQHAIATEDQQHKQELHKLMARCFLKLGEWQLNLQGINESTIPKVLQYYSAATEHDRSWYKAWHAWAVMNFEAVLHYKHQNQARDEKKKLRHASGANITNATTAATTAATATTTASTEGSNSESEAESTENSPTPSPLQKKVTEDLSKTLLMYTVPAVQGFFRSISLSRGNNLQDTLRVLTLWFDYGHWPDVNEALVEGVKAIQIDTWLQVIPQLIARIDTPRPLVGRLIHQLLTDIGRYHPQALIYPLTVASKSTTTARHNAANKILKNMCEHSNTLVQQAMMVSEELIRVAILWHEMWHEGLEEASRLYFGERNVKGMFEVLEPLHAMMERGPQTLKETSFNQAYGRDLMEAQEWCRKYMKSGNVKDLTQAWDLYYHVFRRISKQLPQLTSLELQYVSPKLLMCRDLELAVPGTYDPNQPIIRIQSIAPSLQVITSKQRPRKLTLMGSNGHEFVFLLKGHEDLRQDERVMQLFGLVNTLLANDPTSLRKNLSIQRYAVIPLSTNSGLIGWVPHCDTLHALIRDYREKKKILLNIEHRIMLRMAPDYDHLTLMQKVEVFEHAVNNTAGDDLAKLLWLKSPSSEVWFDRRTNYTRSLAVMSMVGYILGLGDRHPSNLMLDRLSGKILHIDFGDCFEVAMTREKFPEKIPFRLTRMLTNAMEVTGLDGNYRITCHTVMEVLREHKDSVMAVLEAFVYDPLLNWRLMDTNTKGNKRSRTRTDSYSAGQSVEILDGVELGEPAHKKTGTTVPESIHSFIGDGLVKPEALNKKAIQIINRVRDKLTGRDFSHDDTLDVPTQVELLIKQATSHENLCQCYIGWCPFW

On to `C[C@H]1COCCN1c1cc(C2(S(=O)(=O)C3CC3)CC2)nc(-c2ccc(NC(=O)Nc3cnn(C)c3)cc2)n1` [Example 3m, 1-[4-[4-(1-cyclopropylsulfonylcyclopropyl)-6-[(3S)-3-methylmorpholin-4-yl]pyrimidin-2-yl]phenyl]-3-(1-methylpyrazol-4-yl)urea], for which the IC50 under setting [1] worked out at 0.497 nM.
Still for that read-out and setting: for `C[C@H]1COCCN1c1cc(C2(S(=O)(=O)C3CC3)CC2)nc(-c2ccc(NC(=O)NCC(C)(C)CO)cc2)n1` [Example 3n, 1-[4-[4-(1-cyclopropylsulfonylcyclopropyl)-6-[(3S)-3-methylmorpholin-4-yl]pyrimidin-2-yl]phenyl]-3-(3-hydroxy-2,2-dimethylpropyl)urea] the value was 39.6 nM; for `C[C@H]1COCCN1c1cc(C2(S(=O)(=O)C3CC3)CC2)nc(-c2ccc(NC(=O)NCCC#N)cc2)n1` [Example 3o, 3-(2-cyanoethyl)-1-[4-[4-(1-cyclopropylsulfonylcyclopropyl)-6-[(3S)-3-methylmorpholin-4-yl]pyrimidin-2-yl]phenyl]urea], 5.96 nM.
For `C[C@H]1COCCN1c1cc(C2(S(=O)(=O)C3CC3)CC2)nc(-c2ccc(NC(=O)NCCN3CCCC3)cc2)n1` [Example 3p, 1-[4-[4-(1-cyclopropylsulfonylcyclopropyl)-6-[(3S)-3-methylmorpholin-4-yl]pyrimidin-2-yl]phenyl]-3-(2-pyrrolidin-1-ylethyl)urea], under setting [1], the IC50 was determined as 193 nM.
On the same count and under the same terms, the result for `C[C@H]1COCCN1c1cc(C2(S(=O)(=O)C3CC3)CC2)nc(-c2ccc(NC(=O)NCC(O)C(F)(F)F)cc2)n1` (stereo partly drawn) [Example 3q, 1-[4-[4-(1-cyclopropylsulfonylcyclopropyl)-6-[(3S)-3-methylmorpholin-4-yl]pyrimidin-2-yl]phenyl]-3-(3,3,3-trifluoro-2-hydroxypropyl)urea] reads 8.39 nM; that for `C[C@H]1COCCN1c1cc(C2(S(=O)(=O)C3CC3)CC2)nc(-c2ccc(NC(=O)NCC(C)(C)O)cc2)n1` [Example 3r, 1-[4-[4-(1-cyclopropylsulfonylcyclopropyl)-6-[(3S)-3-methylmorpholin-4-yl]pyrimidin-2-yl]phenyl]-3-(2-hydroxy-2-methylpropyl)urea], 48.8 nM.
For `C[C@H]1COCCN1c1cc(C2(S(=O)(=O)C3CC3)CC2)nc(-c2ccc(NC(=O)NC3(CO)CC3)cc2)n1` [Example 3s, 1-[4-[4-(1-cyclopropylsulfonylcyclopropyl)-6-[(3S)-3-methylmorpholin-4-yl]pyrimidin-2-yl]phenyl]-3-[1-(hydroxymethyl)cyclopropyl]urea], the IC50 under setting [1] was found to be 26.3 nM.
Same read-out and setting: for `C[C@H]1COCCN1c1cc(C2(S(=O)(=O)C3CC3)CC2)nc(-c2ccc(NC(=O)NC3COC3)cc2)n1` [Example 3t, 1-[4-[4-(1-cyclopropylsulfonylcyclopropyl)-6-[(3S)-3-methylmorpholin-4-yl]pyrimidin-2-yl]phenyl]-3-(oxetan-3-yl)urea] the value was 4.79 nM; for `C[C@H]1COCCN1c1cc(C2(S(=O)(=O)C3CC3)CC2)nc(-c2ccc(NC(=O)Nc3ccn(C)n3)cc2)n1` [Example 3u, 1-[4-[4-(1-cyclopropylsulfonylcyclopropyl)-6-[(3S)-3-methylmorpholin-4-yl]pyrimidin-2-yl]phenyl]-3-(1-methylpyrazol-3-yl)urea], 0.604 nM; for `C[C@H]1COCCN1c1cc(C2(S(=O)(=O)C3CC3)CC2)nc(-c2ccc(NC(=O)Nc3ncns3)cc2)n1` [Example 3w, 1-[4-[4-(1-cyclopropylsulfonylcyclopropyl)-6-[(3S)-3-methylmorpholin-4-yl]pyrimidin-2-yl]phenyl]-3-(1,2,4-thiadiazol-5-yl)urea], 0.89 nM.
The same measure, in the same setting: the result for `CNC(=O)Nc1ccc(-c2nc(N3CCOC[C@@H]3C)cc(C3(S(C)(=O)=O)CCCC3)n2)cc1` [Example 4, 3-Methyl-1-[4-[4-[(3S)-3-methylmorpholin-4-yl]-6-(1-methylsulfonylcyclopentyl)pyrimidin-2-yl]phenyl]urea] reads 0.699 nM.
Turning to `CCNC(=O)Nc1ccc(-c2nc(N3CCOC[C@@H]3C)cc(C3(S(C)(=O)=O)CCCC3)n2)cc1` [Example 4a, 3-ethyl-1-[4-[4-[(3S)-3-methylmorpholin-4-yl]-6-(1-methylsulfonylcyclopentyl)pyrimidin-2-yl]phenyl]urea], the IC50 turned out to be 2.16 nM under setting [1] and 2.17 nM under setting [2].
As to `CC(C)NC(=O)Nc1ccc(-c2nc(N3CCOC[C@@H]3C)cc(C3(S(C)(=O)=O)CCCC3)n2)cc1` [Example 4c, 1-[4-[4-[(3S)-3-methylmorpholin-4-yl]-6-(1-methylsulfonylcyclopentyl)pyrimidin-2-yl]phenyl]-3-propan-2-yl-urea], the IC50 under setting [1] stood at 16.9 nM.
Same read-out and setting: the result for `C[C@H]1COCCN1c1cc(C2(S(C)(=O)=O)CCCC2)nc(-c2ccc(NC(=O)NC3CCC3)cc2)n1` [Example 4d, 3-cyclobutyl-1-[4-[4-[(3S)-3-methylmorpholin-4-yl]-6-(1-methylsulfonylcyclopentyl)pyrimidin-2-yl]phenyl]urea] reads 10 nM.
With `C[C@H]1COCCN1c1cc(C2(S(C)(=O)=O)CCCC2)nc(-c2ccc(NC(=O)NCCO)cc2)n1` [Example 4e, 3-(2-hydroxyethyl)-1-[4-[4-[(3S)-3-methylmorpholin-4-yl]-6-(1-methylsulfonylcyclopentyl)pyrimidin-2-yl]phenyl]urea], the IC50 amounted to 1.19 nM under setting [1] and 0.767 nM under setting [2].
For the molecule `C[C@H]1COCCN1c1cc(C2(S(C)(=O)=O)CCCC2)nc(-c2ccc(NC(=O)NC(C)(C)CO)cc2)n1` [Example 4f, 3-(1-hydroxy-2-methyl-propan-2-yl)-1-[4-[4-[(3S)-3-methylmorpholin-4-yl]-6-(1-methylsulfonylcyclopentyl)pyrimidin-2-yl]phenyl]urea], the IC50 under setting [1] came to 10 nM.
Still for that read-out and setting: the result for `C[C@H]1COCCN1c1cc(C2(S(C)(=O)=O)CCCC2)nc(-c2ccc(NC(=O)NCCN(C)C)cc2)n1` [Example 4g, 3-(2-dimethylaminoethyl)-1-[4-[4-[(3S)-3-methylmorpholin-4-yl]-6-(1-methylsulfonylcyclopentyl)pyrimidin-2-yl]phenyl]urea] reads 62.6 nM.
For `CCCNC(=O)Nc1ccc(-c2nc(N3CCOC[C@@H]3C)cc(C3(S(C)(=O)=O)CCCC3)n2)cc1` [Example 4h, 1-[4-[4-[(3S)-3-methylmorpholin-4-yl]-6-(1-methylsulfonylcyclopentyl)pyrimidin-2-yl]phenyl]-3-propyl-urea], the IC50 reads like this: under setting [1], 1.57 nM; under setting [2], 1.46 nM.
In the case of `CC(C)CNC(=O)Nc1ccc(-c2nc(N3CCOC[C@@H]3C)cc(C3(S(C)(=O)=O)CCCC3)n2)cc1` [Example 4i, 1-[4-[4-[(3S)-3-methylmorpholin-4-yl]-6-(1-methylsulfonylcyclopentyl)pyrimidin-2-yl]phenyl]-3-(2-methylpropyl)urea], the IC50 under setting [1] stood at 11.5 nM.
In the case of `C[C@H]1COCCN1c1cc(C2(S(C)(=O)=O)CCCC2)nc(-c2ccc(NC(=O)NCCCO)cc2)n1` [Example 4j, 3-(3-hydroxypropyl)-1-[4-[4-[(3S)-3-methylmorpholin-4-yl]-6-(1-methylsulfonylcyclopentyl)pyrimidin-2-yl]phenyl]urea], the IC50 runs as follows: under setting [1], 4.61 nM; under setting [2], 3.79 nM.
On to `C[C@H]1COCCN1c1cc(C2(S(C)(=O)=O)CCCC2)nc(-c2ccc(NC(=O)Nc3ccc(C(F)(F)F)cc3)cc2)n1` [Example 4k, 1-[4-[4-[(3S)-3-methylmorpholin-4-yl]-6-(1-methylsulfonylcyclopentyl)pyrimidin-2-yl]phenyl]-3-[4-(trifluoromethyl)phenyl]urea], for which, under setting [1], the IC50 was determined as 9.05 nM.
On the same count and under the same terms, for `C[C@H]1COCCN1c1cc(C2(S(C)(=O)=O)CCCC2)nc(-c2ccc(NC(=O)Nc3ccccn3)cc2)n1` [Example 4l, 1-[4-[4-[(3S)-3-methylmorpholin-4-yl]-6-(1-methylsulfonylcyclopentyl)pyrimidin-2-yl]phenyl]-3-pyridin-2-yl-urea] the value was 3.69 nM.
On the same count and under the same terms, for `C[C@H]1COCCN1c1cc(C2(S(C)(=O)=O)CCCC2)nc(-c2ccc(NC(=O)Nc3cnn(C)c3)cc2)n1` [Example 4m, 1-[4-[4-[(3S)-3-methylmorpholin-4-yl]-6-(1-methylsulfonylcyclopentyl)pyrimidin-2-yl]phenyl]-3-(1-methylpyrazol-4-yl)urea] the value was 2.45 nM.
